Measurements reported in PubChem BioAssay (NCI).
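The compound was tested at five concentrations on cells cultured in 96-well plates, with a 48-hour exposure period. Here, GI50 denotes the concentration required for 50% inhibition of growth. The concentration for full growth arrest is given as TGI.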

What was measured:
Assay in all cases: NCI tumour cell line growth inhibition, 48 h
DMS 114 small cell lung = test system: DMS 114 small cell lung
DMS 273 small cell lung = test system: DMS 273 small cell lung
HOP-18 NSCLC = test system: HOP-18 NSCLC
KM20L2 colon = test system: KM20L2 colon
LXFL 529 NSCLC = test system: LXFL 529 NSCLC
M19-MEL melanoma = test system: M19-MEL melanoma
RXF-631 renal = test system: RXF-631 renal
XF 498 CNS = test system: XF 498 CNS
MDA-N = test system: MDA-N
P388 leukemia = test system: P388 leukemia
P388/ADR leukemia = test system: P388/ADR leukemia
SN12K1 renal = test system: SN12K1 renal

In the case of `CN(CCCN1C(=O)c2cccc3cc([N+](=O)[O-])cc(c23)C1=O)CCN(C)CCCN1C(=O)c2cccc3cc([N+](=O)[O-])cc(c23)C1=O`, the TGI (DMS 114 small cell lung) is reported as greater than 39.3 µM, the TGI (DMS 273 small cell lung) is reported as greater than 39.3 µM and the TGI (HOP-18 NSCLC) is reported as greater than 39.3 µM. The TGI (KM20L2 colon) was greater than 39.3 µM, the TGI (LXFL 529 NSCLC) was greater than 39.3 µM and the TGI (M19-MEL melanoma) was greater than 39.3 µM. For the same compound, the TGI (RXF-631 renal) was greater than 39.3 µM and the TGI (XF 498 CNS) was greater than 39.3 µM.
`C=C(C)C1CCC2=CC(CC3(C)OC3C3=CC(C(=O)OC)=C(C1)O3)OC2=O` (stereo not given) showed a TGI (MDA-N) greater than 100 µM.
In the case of `CCOC(=O)C(=O)Nc1c(C)cccc1C(C)(C)C`, the TGI (DMS 114 small cell lung) is reported as greater than 100 µM, the TGI (DMS 273 small cell lung) is reported as greater than 100 µM and the TGI (HOP-18 NSCLC) is reported as greater than 100 µM. It also gave a TGI (KM20L2 colon) greater than 100 µM, a TGI (LXFL 529 NSCLC) greater than 100 µM and a TGI (M19-MEL melanoma) greater than 100 µM. The TGI (RXF-631 renal) was greater than 100 µM and the TGI (XF 498 CNS) was greater than 100 µM.
`CSc1ccc(NC(=O)Nc2cc(C)ccn2)cc1` was tested, and the TGI (MDA-N) was greater than 100 µM.
`COc1cccc2c(SCC(=O)Nc3ccccc3-c3ccccc3NC(=O)CSc3c4ccccc4nc4c(OC)cccc34)c3ccccc3nc12` showed a TGI (DMS 114 small cell lung) greater than 100 µM, a TGI (DMS 273 small cell lung) greater than 100 µM and a TGI (KM20L2 colon) greater than 100 µM. It also gave a TGI (RXF-631 renal) greater than 100 µM and a TGI (XF 498 CNS) greater than 100 µM.
Work on `O=C(COC(=O)c1cccc2c(=O)c3ccccc3[nH]c12)Nc1ccc(Cl)cc1` yielded a TGI (DMS 114 small cell lung) greater than 100 µM, a TGI (HOP-18 NSCLC) greater than 100 µM and a TGI (KM20L2 colon) greater than 100 µM. The TGI (LXFL 529 NSCLC) was greater than 100 µM, the TGI (M19-MEL melanoma) was greater than 100 µM and the TGI (XF 498 CNS) was 97.3 µM.
Work on `C=CC(=O)Nc1ccccc1CC(c1c[nH]c2ccccc12)c1c[nH]c2ccccc12` yielded a TGI (DMS 114 small cell lung) of 30.1 µM, a TGI (DMS 273 small cell lung) of 32.1 µM and a TGI (LXFL 529 NSCLC) of 30.6 µM. It also gave a TGI (M19-MEL melanoma) of 30 µM, a TGI (RXF-631 renal) of 32.3 µM and a TGI (XF 498 CNS) of 42.3 µM.
`O=C(O)/C(Cl)=C(Cl)/C=N/NC(=O)c1cc2ccccc2cc1O` was tested, and the TGI (DMS 114 small cell lung) was 51.5 µM, the TGI (DMS 273 small cell lung) was 45.2 µM and the TGI (HOP-18 NSCLC) was 80.5 µM. The TGI (KM20L2 colon) was 87.2 µM, the TGI (LXFL 529 NSCLC) was greater than 100 µM and the TGI (M19-MEL melanoma) was 75.4 µM. The TGI (RXF-631 renal) was greater than 100 µM and the TGI (XF 498 CNS) was greater than 100 µM.
In the case of `CCCCCN(CCCCC)C(=O)[C@H](CCC(=O)O)NC(=O)c1cc2ccccc2[nH]1`, the TGI (DMS 114 small cell lung) is reported as greater than 100 µM, the TGI (DMS 273 small cell lung) is reported as greater than 100 µM and the TGI (KM20L2 colon) is reported as greater than 100 µM. It also gave a TGI (LXFL 529 NSCLC) greater than 100 µM, a TGI (M19-MEL melanoma) greater than 100 µM and a TGI (XF 498 CNS) greater than 100 µM.
With `CN(C)C(=S)/N=c1\ssc(=S)n1Cc1ccco1` the TGI (DMS 114 small cell lung) was greater than 74 µM, the TGI (DMS 273 small cell lung) was greater than 42.2 µM and the TGI (HOP-18 NSCLC) was greater than 100 µM. For the same compound, the TGI (KM20L2 colon) was greater than 100 µM, the TGI (LXFL 529 NSCLC) was greater than 100 µM and the TGI (M19-MEL melanoma) was greater than 100 µM. It also gave a TGI (RXF-631 renal) greater than 100 µM and a TGI (XF 498 CNS) of 60.1 µM.
In the case of `CC1(C2COC(=O)C2)SCCCS1` (stereo not given), the TGI (DMS 114 small cell lung) is reported as greater than 100 µM, the TGI (DMS 273 small cell lung) is reported as greater than 100 µM and the TGI (HOP-18 NSCLC) is reported as greater than 100 µM. The TGI (KM20L2 colon) was greater than 100 µM, the TGI (LXFL 529 NSCLC) was greater than 100 µM and the TGI (M19-MEL melanoma) was greater than 100 µM. The TGI (XF 498 CNS) was greater than 100 µM.
Work on `Oc1ccc(Cl)cc1Sc1cc(Cl)ccc1O` yielded a TGI (MDA-N) of 26.1 µM.
In the case of `Cc1ccc(C2[C@H]3C(=O)N(c4ccc(Cc5ccc(N6C(=O)[C@@H]7ON(c8ccccc8)C(c8ccc(C)cc8)[C@@H]7C6=O)cc5)cc4)C(=O)[C@H]3ON2c2ccccc2)cc1` (stereo not given in full), the TGI (DMS 114 small cell lung) is reported as greater than 100 µM, the TGI (DMS 273 small cell lung) is reported as greater than 100 µM and the TGI (HOP-18 NSCLC) is reported as greater than 100 µM. For the same compound, the TGI (KM20L2 colon) was greater than 100 µM, the TGI (LXFL 529 NSCLC) was greater than 100 µM and the TGI (M19-MEL melanoma) was greater than 100 µM. For the same compound, the TGI (XF 498 CNS) was greater than 100 µM.
With `CN(C)CCNC(=O)c1cccc2c1Oc1cccc([N+](=O)[O-])c1O2` the TGI (MDA-N) was 31.6 µM.
`C[C@]12Cc3conc3C(O)=C1CC[C@@H]1C2CC[C@@]2(C)C1CC[C@]2(C)O` (stereo not given in full) gave a TGI (DMS 114 small cell lung) of 43.4 µM, a TGI (DMS 273 small cell lung) of 26.3 µM and a TGI (KM20L2 colon) of 42.7 µM. For the same compound, the TGI (LXFL 529 NSCLC) was 35.7 µM, the TGI (M19-MEL melanoma) was 41.9 µM and the TGI (RXF-631 renal) was greater than 100 µM. For the same compound, the TGI (XF 498 CNS) was 47.2 µM.
Work on `CCCS(=O)c1nc(COC(=O)NC)c(COC(=O)NC)n1C` (stereo not given) yielded a TGI (DMS 114 small cell lung) greater than 100 µM, a TGI (DMS 273 small cell lung) greater than 100 µM and a TGI (HOP-18 NSCLC) greater than 100 µM. The TGI (KM20L2 colon) was greater than 100 µM, the TGI (LXFL 529 NSCLC) was greater than 100 µM and the TGI (M19-MEL melanoma) was greater than 100 µM. The TGI (P388 leukemia) was greater than 100 µM, the TGI (P388/ADR leukemia) was greater than 100 µM and the TGI (RXF-631 renal) was greater than 100 µM. For the same compound, the TGI (SN12K1 renal) was greater than 100 µM and the TGI (XF 498 CNS) was greater than 100 µM.
In the case of `COC(=O)c1ccc(C(=O)OC)c2nc3cc(Cl)ccc3nc12`, the TGI (DMS 114 small cell lung) is reported as greater than 100 µM, the TGI (DMS 273 small cell lung) is reported as greater than 100 µM and the TGI (HOP-18 NSCLC) is reported as greater than 100 µM. For the same compound, the TGI (KM20L2 colon) was greater than 100 µM, the TGI (LXFL 529 NSCLC) was greater than 100 µM and the TGI (M19-MEL melanoma) was greater than 100 µM. The TGI (RXF-631 renal) was greater than 100 µM and the TGI (XF 498 CNS) was greater than 100 µM.
Compound `Cc1cc2c3c([n+](C)c4ccc(F)cc4c3c1)-c1cc(F)ccc1N2C` has a GI50 (MDA-N) of 14.3 µM and a TGI (MDA-N) greater than 100 µM.
`C=C1C(=O)O[C@@H]2CC(CO)=C([C@@H](C)CCCO)[C@@H](OC(=O)/C(C)=C\C)[C@H]12` gave a TGI (MDA-N) greater than 67.3 µM.
With `O=C(NNc1ccccc1)c1ccc(Cl)c(Cl)c1` the TGI (MDA-N) was greater than 100 µM.
`[Cl][Hg][c]1ccc2ccccc2c1` showed a GI50 (MDA-N) of 1.5 µM and a TGI (MDA-N) of 2.88 µM.
`Cc1cc(N(CCC#N)CCC#N)ccc1/C=C(\NC(=O)/C=C/c1ccccc1)C(=O)Nc1ccc(Cl)cc1` gave a TGI (DMS 114 small cell lung) greater than 100 µM, a TGI (DMS 273 small cell lung) greater than 100 µM and a TGI (HOP-18 NSCLC) greater than 100 µM. The TGI (KM20L2 colon) was greater than 79.6 µM, the TGI (LXFL 529 NSCLC) was greater than 100 µM and the TGI (M19-MEL melanoma) was greater than 38.1 µM. The TGI (MDA-N) was greater than 100 µM, the TGI (RXF-631 renal) was greater than 100 µM and the TGI (XF 498 CNS) was greater than 100 µM.
For `COc1c(-c2ccc3c(c2)OCO3)oc2cc(O)cc(O)c2c1=O`, the TGI (MDA-N) was greater than 100 µM.
